Test results taken from patent US7412279B2, “Systems and methods for targeted magnetic resonance imaging of the vascular system” (Epix Pharmaceuticals, Inc., priority 2001, dated 2008).

Assays:
[1] = system: thrombus; test: In vivo MRI of a jugular vein thrombus in the guinea pig, extracellular vascular agent followed by targeted agent; parameters: species or system guinea pig (Hartley male); conditions: vascular MR image
Protocol: A 600 g guinea pig (Hartley male) was anaesthetized with a cocktail of Ketamine (50 mg/kg), Aceapromazine (2.5 mg/kg), and Rompon (5 mg/kg), and anesthesia maintained with sodium pentobarbital (approx.35 mg/kg as needed). An incision was made in the throat and one of the jugular veins was isolated. A 1 cm section of the jugular vein was isolated with vascular clamps. Freshly drawn blood from the animal (50 μL) was mixed with human thrombin (50 uL, 4 units) and injected into the clamped segment of the vein. Four minutes after injection, the clamps were removed and the thrombus was allowed to age for 30 minutes.
The animal was placed inside a General Electric Signa LxCVi 1.5 tesla scanner and imaged using a 3D RF spoiled gradient echo sequence (SPGR) with the following parameters TR=22 ms, TE=3.1 ms, flip angle=40 degree, field of view=8 cm, acquisition bandwith=31.25 kHz. After one scan, an extracellular vascular MRI contrast agent, GdDTPA (Magnevist®), 100 μmol/kg, was injected via a catheter in the carotid artery. The image sequence was repeated 5 times over the next 30 minutes to acquire the vascular MRI data set. […]

[2] = system: thrombus; test: In vivo protocol: vascular agent followed by targeted agent, guinea pig jugular vein thrombus; parameters: species or system guinea pig (Hartley male); conditions: Example 1, 100 μmol/kg
Protocol: One procedure for in vivo imaging of a stationary target within the vascular system (e.g., a thrombus) with a vascular agent (e.g., an extracellular contrast agent or a blood pool agent), and a targeted contrast agent is as follows: A 600 g guinea pig (Hartley male) is anaesthetized. An incision is made in the throat and one of the jugular veins is isolated. A 1 cm section of the jugular vein is isolated with vascular clamps. Freshly drawn blood from the animal (50 μL) is mixed with human thrombin (50 μL, 4 units) and injected into the clamped segment of the vein. Four minutes after injection, the clamps are removed and the thrombus is allowed to age for 30 minutes. GdDTPA (Magnevist®), 100 μmol/kg, an extracellular contrast agent, is injected and the throat area of the guinea pig is imaged using the following pulse sequence on a GE Medical Systems 1.5T MRI: Tl-weighted SPGR, TE=3.1, TR=22, flip angle=40°. […] After 30 minutes, GdDTPA has cleared from the blood and a stationary target (thrombus) targeted MRI agent is injected at a dose of 6 μmol/kg. […]

[3] = system: thrombus; test: In vivo MRI of thrombi in the rabbit carotid artery (crush injury) and jugular vein; parameters: species or system New Zealand White rabbit
Protocol: A 2.5 kg female New Zealand White rabbit was anesthetized with a cocktail of Ketamine (50 mg/kg), Aceapromazine (2.5 mg/kg), and Rompon (5 mg/kg), and anesthesia maintained with sodium pentobarbital (approx.35 mg/kg as needed). An i.v. catheter (24 g) was placed into the ear vein and the ear artery. The jugular vein and carotid artery were isolated. A stenosis was created in the carotid artery by placing an 18 g needle on top of the vessel and then suturing it into place with 3-0 suture. The needle was then removed. A 5 mm portion of the artery was then segmented off distally to the stenosis with microvascular clips. The artery was crushed twice along the 5 mm section. The proximal vascular clip was released to allow blood flow into the section for circa 3 sec. The clip was reapplied and the artery was crushed twice again along the 5 mm section. After 4 minutes, the clips were removed. A 5 mm segment of the jugular vein was isolated with microvascular clips. A thrombus was created by injecting 100 μL of a 3.7 units thrombin, 0.06 M CaCl2, rabbit whole blood mixture. After 4 minutes, the clips were removed.
The thrombi were allowed to age for 50 minutes. A 1.0 mL solution of a 5 mM targeted contrast agent (Structure III, 2 μmol/kg) was administered via the ear vein. […]

| Compound | enhancement of the vascular system ([1]; Example 10, 100 μmol/kg via carotid artery catheter) [fold] | enhancement of the thrombus ([1]; Example 10, 100 μmol/kg) | enhancement of the thrombus [2] | enhancement of the vasculature ([2]; immediately after injection) | visibility of blood vessels (carotid arteries, jugular veins) in MIP ([3]; Example 6, 80 μmol Gd/kg, image acquired immediately after injection) | signal intensity of both the blood and thrombus ([3]; Example 9, 80 μmol Gd/kg, injected 80 minutes after the targeted agent) |
| --- | --- | --- | --- | --- | --- | --- |
| O=C([O-])CN(CCN(CC(=O)[O-])CC(=O)O)CCN(CC(=O)[O-])CC(=O)O.[Gd+3] [GdDTPA] | 4 | no observable enhancement | no enhancement | some enhancement | – | – |
| Gd-DTPA-BSA | – | – | – | – | readily visible | increased dramatically |
